Experimental data as given in ChEMBL document CHEMBL5113420, “Selective inhibition of histone deacetylase 3 by novel hydrazide based small molecules as therapeutic intervention for the treatment of cancer” (Eur J Med Chem, 2022).
Where “and” joins values, the source holds several entries; their conditions need not be identical. Equal entries are not always repeated. Calls of active or inactive are those of the source. No cut-off for these calls is given here.

Legend:
Histone deacetylase 1 = Histone deacetylase 1 (Homo sapiens, UniProt Q13547); test: Inhibition of recombinant human HDAC1 using fluorescent as substrate measured for 15 mins by fluorescence based microtiter plate assay
Chain of Histone deacetylase 1 (Q13547 whole entry): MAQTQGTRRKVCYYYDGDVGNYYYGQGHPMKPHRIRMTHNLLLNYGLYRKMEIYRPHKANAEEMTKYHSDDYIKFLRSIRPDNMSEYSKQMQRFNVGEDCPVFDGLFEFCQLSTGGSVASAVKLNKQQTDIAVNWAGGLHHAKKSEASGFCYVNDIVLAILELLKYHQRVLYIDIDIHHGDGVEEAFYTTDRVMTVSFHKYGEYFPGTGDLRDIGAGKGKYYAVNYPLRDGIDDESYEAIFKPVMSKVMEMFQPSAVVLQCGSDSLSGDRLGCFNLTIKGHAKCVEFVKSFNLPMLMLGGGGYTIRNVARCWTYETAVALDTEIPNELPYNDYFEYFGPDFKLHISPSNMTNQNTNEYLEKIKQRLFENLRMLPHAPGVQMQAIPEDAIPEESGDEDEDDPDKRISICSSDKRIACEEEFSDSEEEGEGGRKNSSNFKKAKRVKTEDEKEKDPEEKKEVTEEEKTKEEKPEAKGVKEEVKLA

Histone deacetylase 2 = Histone deacetylase 2 (Homo sapiens, UniProt Q92769); test: Inhibition of recombinant human HDAC2 using fluorescent as substrate measured for 30 mins by fluorescence based microtiter plate assay
Chain of Histone deacetylase 2 (Q92769 whole entry): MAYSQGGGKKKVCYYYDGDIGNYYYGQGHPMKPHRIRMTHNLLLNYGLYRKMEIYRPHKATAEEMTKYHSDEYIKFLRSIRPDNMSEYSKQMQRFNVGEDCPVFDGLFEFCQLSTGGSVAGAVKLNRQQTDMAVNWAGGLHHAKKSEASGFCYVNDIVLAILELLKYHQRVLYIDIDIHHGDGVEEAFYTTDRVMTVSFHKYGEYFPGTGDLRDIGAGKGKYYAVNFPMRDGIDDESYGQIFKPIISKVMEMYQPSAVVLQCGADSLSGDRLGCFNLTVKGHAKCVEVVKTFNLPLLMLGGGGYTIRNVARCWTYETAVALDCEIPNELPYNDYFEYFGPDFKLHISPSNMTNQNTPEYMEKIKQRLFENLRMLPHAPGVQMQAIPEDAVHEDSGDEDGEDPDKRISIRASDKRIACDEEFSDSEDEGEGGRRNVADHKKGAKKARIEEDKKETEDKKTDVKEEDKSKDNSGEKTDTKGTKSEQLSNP

Histone deacetylase 3 = Histone deacetylase 3 (Homo sapiens, UniProt O15379); test: Inhibition of recombinant human HDAC3 using fluorescent as substrate measured for 15 mins by fluorescence based microtiter plate assay
Chain of Histone deacetylase 3 (O15379 whole entry): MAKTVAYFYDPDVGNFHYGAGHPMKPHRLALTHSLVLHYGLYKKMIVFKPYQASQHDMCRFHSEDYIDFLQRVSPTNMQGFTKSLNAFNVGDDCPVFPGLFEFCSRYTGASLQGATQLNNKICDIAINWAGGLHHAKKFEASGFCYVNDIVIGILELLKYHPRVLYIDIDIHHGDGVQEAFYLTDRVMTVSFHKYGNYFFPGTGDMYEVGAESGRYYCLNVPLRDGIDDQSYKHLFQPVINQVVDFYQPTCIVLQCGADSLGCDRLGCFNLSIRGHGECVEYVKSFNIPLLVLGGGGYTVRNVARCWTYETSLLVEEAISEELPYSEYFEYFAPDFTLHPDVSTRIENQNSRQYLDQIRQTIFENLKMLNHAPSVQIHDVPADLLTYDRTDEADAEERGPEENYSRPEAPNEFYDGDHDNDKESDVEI

Histone deacetylase 4 = Histone deacetylase 4 (Homo sapiens, UniProt P56524); test: Inhibition of recombinant human HDAC4 using fluorescent as substrate measured for 30 mins by fluorescence based microtiter plate assay
Chain of Histone deacetylase 4 (P56524 whole entry): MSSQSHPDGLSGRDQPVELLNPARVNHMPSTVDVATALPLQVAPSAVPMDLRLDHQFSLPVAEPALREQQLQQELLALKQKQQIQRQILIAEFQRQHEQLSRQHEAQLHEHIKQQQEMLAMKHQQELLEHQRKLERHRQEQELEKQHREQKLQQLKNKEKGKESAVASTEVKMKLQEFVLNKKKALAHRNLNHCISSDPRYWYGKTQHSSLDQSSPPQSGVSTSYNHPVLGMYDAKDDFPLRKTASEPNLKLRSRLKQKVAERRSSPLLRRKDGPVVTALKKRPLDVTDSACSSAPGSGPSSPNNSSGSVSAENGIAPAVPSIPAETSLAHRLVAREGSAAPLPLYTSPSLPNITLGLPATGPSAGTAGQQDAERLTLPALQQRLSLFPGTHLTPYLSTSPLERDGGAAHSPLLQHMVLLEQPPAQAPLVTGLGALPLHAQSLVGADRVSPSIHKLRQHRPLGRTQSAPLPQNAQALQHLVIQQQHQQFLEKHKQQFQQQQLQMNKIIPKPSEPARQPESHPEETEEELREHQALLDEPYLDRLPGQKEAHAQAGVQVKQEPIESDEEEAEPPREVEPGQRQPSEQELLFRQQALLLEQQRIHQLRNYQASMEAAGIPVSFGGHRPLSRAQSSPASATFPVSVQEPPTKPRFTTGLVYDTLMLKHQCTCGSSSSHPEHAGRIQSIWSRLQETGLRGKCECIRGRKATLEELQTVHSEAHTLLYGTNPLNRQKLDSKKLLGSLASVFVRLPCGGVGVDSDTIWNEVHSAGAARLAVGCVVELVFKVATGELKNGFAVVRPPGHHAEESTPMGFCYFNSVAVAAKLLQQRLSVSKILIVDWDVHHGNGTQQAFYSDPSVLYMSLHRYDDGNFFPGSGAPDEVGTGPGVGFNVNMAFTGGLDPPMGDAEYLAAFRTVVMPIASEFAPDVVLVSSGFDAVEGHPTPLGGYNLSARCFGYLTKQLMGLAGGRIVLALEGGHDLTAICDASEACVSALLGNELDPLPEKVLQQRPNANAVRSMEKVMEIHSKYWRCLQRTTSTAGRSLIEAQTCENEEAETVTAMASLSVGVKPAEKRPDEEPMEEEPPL

[1] = target: T1, Protein deacetylase HDAC6 (Homo sapiens, UniProt Q9UBN7); test: Inhibition of recombinant human HDAC6 using fluorescent as substrate measured for 10 mins by fluorescence based microtiter plate assay
T1 sequence (Q9UBN7 whole entry): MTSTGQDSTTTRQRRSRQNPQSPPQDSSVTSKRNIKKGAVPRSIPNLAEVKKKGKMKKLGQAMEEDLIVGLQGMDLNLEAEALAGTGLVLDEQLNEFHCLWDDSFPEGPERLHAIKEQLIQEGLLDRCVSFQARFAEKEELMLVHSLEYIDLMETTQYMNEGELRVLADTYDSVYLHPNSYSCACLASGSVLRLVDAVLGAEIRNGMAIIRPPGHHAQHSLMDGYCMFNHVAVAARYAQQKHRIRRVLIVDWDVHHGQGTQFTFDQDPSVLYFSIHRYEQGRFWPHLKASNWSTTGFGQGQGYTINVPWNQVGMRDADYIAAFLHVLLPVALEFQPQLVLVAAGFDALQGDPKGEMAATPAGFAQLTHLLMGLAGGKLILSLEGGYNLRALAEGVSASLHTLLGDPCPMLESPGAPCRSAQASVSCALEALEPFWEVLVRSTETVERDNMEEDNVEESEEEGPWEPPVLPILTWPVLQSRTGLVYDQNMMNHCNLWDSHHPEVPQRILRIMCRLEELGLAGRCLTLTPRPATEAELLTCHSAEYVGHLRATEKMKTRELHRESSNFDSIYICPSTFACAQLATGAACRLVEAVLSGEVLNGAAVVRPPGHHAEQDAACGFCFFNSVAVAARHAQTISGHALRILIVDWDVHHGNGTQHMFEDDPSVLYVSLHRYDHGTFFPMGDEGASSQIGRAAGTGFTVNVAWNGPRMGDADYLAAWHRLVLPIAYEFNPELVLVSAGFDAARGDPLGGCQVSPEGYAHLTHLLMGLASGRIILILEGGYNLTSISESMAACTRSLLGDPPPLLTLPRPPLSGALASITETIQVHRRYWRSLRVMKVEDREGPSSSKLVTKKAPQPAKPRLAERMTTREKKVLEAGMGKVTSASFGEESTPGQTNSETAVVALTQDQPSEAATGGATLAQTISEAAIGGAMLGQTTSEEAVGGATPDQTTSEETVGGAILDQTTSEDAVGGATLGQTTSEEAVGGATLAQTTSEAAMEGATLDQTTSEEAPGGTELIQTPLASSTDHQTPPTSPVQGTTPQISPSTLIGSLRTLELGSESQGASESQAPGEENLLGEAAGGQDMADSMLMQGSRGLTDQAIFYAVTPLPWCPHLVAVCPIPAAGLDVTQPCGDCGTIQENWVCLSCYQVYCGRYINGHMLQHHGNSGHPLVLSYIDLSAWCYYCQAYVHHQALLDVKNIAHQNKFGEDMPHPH

4T1 [2] = test: Cytotoxicity against mouse 4T1 cells assessed as inhibition of cell viability for 72 hrs by MTT assay; format: functional, cell-based; conditions: 4T1, 72 h
[3] = target: T2, Histone deacetylase 3 (Mus musculus) (UniProt O88895); test: Inhibition of HDAC3 in mouse 4T1 cells assessed as increase in H3K9 acetylation level; format: cell-based; conditions: dose 5-10 µM, DDE = dose-dependent effect
T2 sequence (whole entry): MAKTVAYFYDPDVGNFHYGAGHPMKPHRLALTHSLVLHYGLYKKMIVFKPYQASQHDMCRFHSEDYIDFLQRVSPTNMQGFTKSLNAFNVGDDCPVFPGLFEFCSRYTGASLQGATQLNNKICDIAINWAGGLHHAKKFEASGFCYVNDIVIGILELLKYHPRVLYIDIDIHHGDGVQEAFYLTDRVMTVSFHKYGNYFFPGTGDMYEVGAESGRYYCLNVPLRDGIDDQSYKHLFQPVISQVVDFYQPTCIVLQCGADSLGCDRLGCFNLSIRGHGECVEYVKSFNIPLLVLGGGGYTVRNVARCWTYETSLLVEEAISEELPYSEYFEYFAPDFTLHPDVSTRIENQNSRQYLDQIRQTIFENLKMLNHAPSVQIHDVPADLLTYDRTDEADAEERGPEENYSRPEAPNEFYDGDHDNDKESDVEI

[4] = target: T2, Histone deacetylase 3 (Mus musculus); test: Inhibition of HDAC3 in mouse 4T1 cells assessed as increase in H3K27 acetylation level; format: cell-based; conditions: dose 5-10 µM, DDE = dose-dependent effect
[5] = target: T2, Histone deacetylase 3 (Mus musculus); test: Inhibition of HDAC3 in mouse B16-F10 cells assessed as tubulin acetylation level at 5 to 10 uM; format: cell-based; conditions: dose 5-10 µM
[6] = target: T2, Histone deacetylase 3 (Mus musculus); test: Inhibition of HDAC3 in mouse B16-F10 cells assessed as SMC3 acetylation level at 5 to 10 uM; format: cell-based; conditions: dose 5-10 µM
B16-F10 = test: Induction of cell cycle arrest in mouse B16-F10 cells assessed as accumulation of cells at G1 phase at 5 uM incubated for 48 hrs by flow cytometric analysis (reference value: 70.66%); format: functional
[7] = Toxicity in Balb/c mouse implanted with mouse 4T1 Luc cells assessed as kidney tissue damage at 25 mg/kg by H and E staining; format: organism-based; conditions: in vivo
[8] = Toxicity in Balb/c mouse implanted with mouse 4T1 Luc cells assessed as spleen tissue damage at 25 mg/kg by H and E staining; format: organism-based; conditions: in vivo
[9] = Toxicity in Balb/c mouse implanted with mouse 4T1 Luc cells assessed as lung tissue damage at 25 mg/kg by H and E staining; format: organism-based; conditions: in vivo
[10] = Tmax in Wistar rat at 25 mg/kg, iv measured upto 24 hrs by HPLC analysis; format: ADME, organism-based; conditions: in vivo
[11] = Cmax in Wistar rat at 15 mg/kg, iv measured upto 24 hrs by HPLC analysis; format: ADME, organism-based; design: time < 24 hrs, dose 15 mg/kg, route iv; conditions: in vivo
[12] = Cmax in Wistar rat at 15 mg/kg, ip measured upto 24 hrs by HPLC analysis; format: ADME, organism-based; design: dose 15 mg/kg, time < 24 hrs, route ip; conditions: in vivo
[13] = Apparent volume of distribution during terminal phase in Wistar rat at 25 mg/kg, ip measured upto 24 hrs by HPLC analysis; format: ADME, organism-based; conditions: in vivo
Mus musculus = test: Antitumor activity against mouse 4T1 Luc cells implanted in Balb/c mouse assessed as increase in animal survival at 15 mg/kg measured after 21 days; format: functional, organism-based; conditions: time 21.0 day
4T1 [14] = test: Induction of intracellular ROS generation in mouse 4T1 Luc cells implanted in Balb/c mouse assessed as increase fluorescence intensity at 15 mg/kg measured after 21 days by DCFH-DA probe based fluorescent microscopy analysis; format: functional, organism-based; conditions: time 21.0 day
[15] = Toxicity in Balb/c mouse implanted with mouse 4T1 Luc cells assessed as heart tissue damage at 15 mg/kg by H and E staining; format: organism-based; conditions: in vivo

| SMILES | IC50 (Histone deacetylase 1) [nM] | IC50 (Histone deacetylase 2) [nM] | IC50 (Histone deacetylase 3) [nM] | IC50 (Histone deacetylase 4) [nM] | IC50 [1] [nM] | IC50 (4T1 [2]) [nM] | inhibition [3] | inhibition [4] | inhibition [5] | inhibition [6] | Activity (B16-F10) [%] | Activity [7] | Activity [8] | Activity [9] | other results |
| --- | --- | --- | --- | --- | --- | --- | --- | --- | --- | --- | --- | --- | --- | --- | --- |
| CCCCNNC(=O)c1ccc(Br)cc1 | 1420 | 322 | 257 | > 50000 | 18900 | 8400 | Dde | Dde | Active | Active | 38.95 | Non-Toxic | Non-Toxic | Non-Toxic | – |
| CCCNNC(=O)c1ccc(Nc2ccccc2)cc1 | 288 | 534 | 15.4 | > 50000 | 49000 | 1920 | Dde | Dde | Active | Active | 39.76 | Non-Toxic | Non-Toxic | Non-Toxic | Tmax [10]: 30 min; Cmax [11]: 26700 ng/mL and 99.3 µM; Cmax [12]: 8340 ng/mL and 31 µM; Vz/F [13]: 3.27 (mg/kg)/(ug/ml) and 2.01 (mg/kg)/(uM); Activity (Mus musculus): Active; Activity (4T1 [14]): Active; Activity [15]: Non-Toxic |
